The results in this text go back to US20060004002A1 (priority 2004, published 2006).

Where two headings read alike, the source gives them in different places.

The target in assay [1] is T1, Recombinant Csk (Homo sapiens, UniProt P41240).
T1 construct: GST ('glutathione-5-transferase' [sic]); made in house; host or cells: E. coli (pGEX expression vector)
The experiment in a line: Csk tyrosine kinase activity assay with poly E4Y and 32P-ATP. The format is biochemical. The following applies: NI = no inhibition. On the procedure: (§1) Recombinant human Src was expressed using the baculovirus-insect cell system and purified as published (Budde et al., 1993 and 2000). Recombinant Csk and the FGF receptor (FGFr) were expressed as […] fusion proteins using the pGEX expression vector and E. coli, and purified as described (Sun & Budde, 1995).
(§2) The tyrosine kinase activity of Src, Csk and FGFr was determined using poly E4Y and ^32P-ATP. Briefly, enzymes were assayed in a reaction mixture […] consisting of 0.15 M EPPS-NaOH (pH 8.0) with 6 mM MgCl2, 0.2 mM γ^32P-ATP (0.2-0.4 mCi/μmol), 10% glycerol, 0.1% Triton X-100, and poly E4Y. Poly E4Y is a synthetic peptide whose phosphorylation is measured in this assay by the addition of the radioactively labeled phosphate from the ATP (Budde et al., 1995). […] When ATP was varied (0, 50, 100 and 250 μM), poly E4Y was kept constant at 150 μg/ml.

For assay [2], the target named is T2, Recombinant human Src (Homo sapiens, UniProt P12931).
T2 construct: made in house; host or cells: baculovirus-insect cell system
T2 sequence (P12931 whole entry): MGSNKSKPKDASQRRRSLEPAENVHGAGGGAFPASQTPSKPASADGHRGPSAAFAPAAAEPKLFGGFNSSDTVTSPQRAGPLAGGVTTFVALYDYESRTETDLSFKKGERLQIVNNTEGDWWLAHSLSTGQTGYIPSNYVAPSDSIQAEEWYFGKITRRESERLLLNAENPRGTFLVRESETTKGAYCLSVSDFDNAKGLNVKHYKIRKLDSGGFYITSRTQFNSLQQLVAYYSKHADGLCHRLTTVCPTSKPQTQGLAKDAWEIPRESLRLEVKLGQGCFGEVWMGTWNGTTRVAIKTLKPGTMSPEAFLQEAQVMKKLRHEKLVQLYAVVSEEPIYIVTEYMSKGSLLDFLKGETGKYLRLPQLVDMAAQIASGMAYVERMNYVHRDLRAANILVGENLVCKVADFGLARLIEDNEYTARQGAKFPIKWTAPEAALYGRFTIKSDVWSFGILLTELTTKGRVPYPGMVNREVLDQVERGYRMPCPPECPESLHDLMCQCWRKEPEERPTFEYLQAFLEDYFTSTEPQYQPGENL
The assay can be described thus: Src tyrosine kinase activity assay with poly E4Y and 32P-ATP. The format is biochemical. On the procedure:
as §1, §2

[3] abbreviates: poly E4Y, 32P-ATP, NI = no inhibition, read-out: IC50 Value Src.
Where [4] appears, read: especially good inhibitors of Src, screening assay 50 μg/ml poly E4Y, 0.2 mM ATP, read-out: IC50 (inhibitors of Src).

T1 sequence (P41240 whole entry, species assumed): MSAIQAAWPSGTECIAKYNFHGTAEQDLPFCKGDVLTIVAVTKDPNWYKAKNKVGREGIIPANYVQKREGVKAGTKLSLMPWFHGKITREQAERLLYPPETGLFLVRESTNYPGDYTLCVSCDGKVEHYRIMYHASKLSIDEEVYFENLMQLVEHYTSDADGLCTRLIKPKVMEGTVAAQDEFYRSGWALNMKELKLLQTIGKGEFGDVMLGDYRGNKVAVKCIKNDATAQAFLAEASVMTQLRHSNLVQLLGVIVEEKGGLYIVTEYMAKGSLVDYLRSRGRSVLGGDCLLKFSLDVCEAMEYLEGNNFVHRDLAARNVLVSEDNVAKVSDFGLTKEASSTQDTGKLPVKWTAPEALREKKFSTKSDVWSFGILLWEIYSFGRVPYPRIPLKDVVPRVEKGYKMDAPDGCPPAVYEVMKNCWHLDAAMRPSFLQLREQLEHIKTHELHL

By IC50 is commonly meant the point on the concentration scale where inhibition reaches its midpoint. For `CCOc1ccccc1-c1sc2c(NN=Cc3ccc(C(=O)O)cc3)ncnc2c1C#N` [compound 68], the figures for the IC50 in assay [1] and in assay [2] (setting [3]) were 26000 nM and 1.4 nM, respectively.

As to `COc1ccc(C=NNc2ncnc3c(C)c(-c4cccc(C(N)=NO)c4)sc23)cc1O` [Compound 45], the half-maximal inhibitory concentration (IC50) in assay [1] stood at 26800 nM; in assay [2] (setting [3]), 19 nM.

Regarding `COc1ccc(C=NNc2ncnc3c(C#N)c(-c4ccc(N)cc4)sc23)cc1O` [compound 59], the IC50 in assay [1] was found to be 10000 nM; in assay [2] (setting [3]), 16 nM.

Regarding `COc1ccc(C=NNc2ncnc3c(C)c(-c4ccc([N+](=O)[O-])cc4)sc23)cc1O` [Compound 39, 3-Hydroxy-4-methoxybenzaldehyde (6-(4-nitrophenyl)-7-methylthieno[3,2-d]pyrimidin-4-yl)hydrazone], the 50% inhibitory concentration (IC50) in assay [1] turned out to be 23000 nM; in assay [2] (setting [3]), 160 nM.

Regarding `CCOc1ccccc1-c1sc2c(NN=Cc3ccc(O)cc3)ncnc2c1O` [Compound 104, 4-Hydroxybenzaldehyde (6-(2-ethoxyphenyl)-7-hydroxythieno[3,2-d]pyrimidin-4-yl)hydrazone], the values for the IC50 in assay [1], in assay [2] (setting [4]) and in assay [2] (setting [3]) were 980 nM, at most 2000 nM and 1.6 nM, respectively.

As to `CCOc1ccccc1-c1sc2c(NN=Cc3[nH]cnc3C)ncnc2c1O` [Compound 117, 4-Methyl-5-imidazolecarboxaldehyde (6-(2-ethoxyphenyl)-7-hydroxythieno[3,2-d]pyrimidin-4-yl)hydrazone], the IC50 in assay [1] is 5500 nM; in assay [2] (setting [3]), 5 nM.

Regarding `CCOc1ccccc1-c1sc2c(NN=Cc3ccco3)ncnc2c1O` [Compound 121, 2-Furancarboxaldehyde (6-(2-ethoxyphenyl)-7-hydroxythieno[3,2-d]pyrimidin-4-yl)hydrazone], the IC50 in assay [1] amounted to 5000 nM; in assay [2] (setting [3]), 6 nM.

Take `CCOc1ccccc1-c1sc2c(NN=Cc3ccc(OCCN4CCOCC4)c(OC)c3)ncnc2c1C` [Compound 54, 3-Methoxy-4-(2-(morpholin-4-yl)-ethoxy)-benzaldehyde (6-(2-ethoxyphenyl)-7-methylthieno[3,2-d]pyrimidin-4-yl)hydrazone]: the IC50 in assay [1] was 110000 nM; in assay [2] (setting [3]), 1.4 nM.

On to `CCOc1ccccc1-c1sc2c(NN=Cc3cc(OC)c(O)c(OC)c3)ncnc2c1O` [Compound 96, 3,5-Dimethoxy-4-hydroxybenzaldehyde (6-(2-ethoxyphenyl)-7-hydroxythieno[3,2-d]pyrimidin-4-yl)hydrazone], for which the IC50 is 580 nM in assay [1], at most 2000 nM in assay [2] (setting [4]) and 0.73 nM in assay [2] (setting [3]).

In the case of `CCOc1cc(F)ccc1-c1sc2c(NN=Cc3ccc(OC)c(O)c3)ncnc2c1CO` [Compound 60, 3-Hydroxy-4-methoxybenzaldehyde (6-(2-ethoxy-4-fluorophenyl)-7-hydroxymethylthieno[3,2-d]pyrimidin-4-yl)hydrazone], the IC50 in assay [1] is 210000 nM; in assay [2] (setting [3]) it was 36 nM.

For `C=Cc1c(-c2ccccc2OCC)sc2c(NN=Cc3ccc(OC)c(O)c3)ncnc12` [Compound 34, 3-Hydroxy-4-methoxybenzaldehyde (6-(2-ethoxyphenyl)-7-vinylthieno[3,2-d]pyrimidin-4-yl)hydrazone], the IC50 in assay [1] was 1350 nM; in assay [2] (setting [4]), at most 2000 nM; in assay [2] (setting [3]) it was 39 nM.

With `Cc1c(-c2cccc(C(N)=NO)c2)sc2c(NN=Cc3cccnc3)ncnc12` [Compound 49, 3-Pyridinecarboxaldehyde (6-(N-hydroxy-benzamidin-3-yl)-7-methylthieno[3,2-d]pyrimidin-4-yl)hydrazone], the IC50 in assay [1] worked out at 124000 nM; in assay [2] (setting [3]) it was 4.1 nM.

As to `CCOc1ccccc1-c1sc2c(NN=Cc3ccc(OC)c(O)c3)ncnc2c1O` [Compound 37, 3-Hydroxy-4-methoxybenzaldehyde (6-(2-ethoxyphenyl)-7-hydroxythieno[3,2-d]pyrimidin-4-yl)hydrazone], the IC50 is 1280 nM in assay [1], at most 2000 nM in assay [2] (setting [4]) and 2.6 nM in assay [2] (setting [3]).

Consider `CCOc1ccccc1-c1sc2c(NN=Cc3ccc(OC)c(OCCN4CCOCC4)c3)ncnc2c1C` [Compound 52, 4-Methoxy-3-(2-(morpholin-4-yl)-ethoxy)-benzaldehyde (6-(2-ethoxyphenyl)-7-methylthieno[3,2-d]pyrimidin-4-yl)hydrazone], for which the values for the IC50 in assay [1] and in assay [2] (setting [3]) were 46000 nM and 1.1 nM, respectively.

As for `CCOc1ccccc1-c1sc2c(NN=Cc3cccc(O)c3)ncnc2c1C#N` [compound 103], the results for the IC50 in assay [1] and in assay [2] (setting [3]) were 13000 nM and 1.5 nM, respectively.

`CCOc1ccccc1-c1sc2c(NN=Cc3ccc(C)o3)ncnc2c1C#N` [compound 134]: the IC50 in assay [2] (setting [3]) is 2.6 nM.

`CCNc1ccc(-c2sc3c(NN=Cc4ccc(OC)c(O)c4)ncnc3c2C)cc1` [Compound 48, 3-Hydroxy-4-methoxybenzaldehyde (6-(4-N-ethylaminophenyl)-7-methylthieno[3,2-d]pyrimidin-4-yl)hydrazone]: the IC50 in assay [2] (setting [3]) was 64 nM.

For `CCOc1ccccc1-c1sc2c(NN=Cc3ccc(C(=O)OC)cc3)ncnc2c1C#N` [compound 118], in assay [2] (setting [3]), the IC50 was determined as 22 nM.

In the case of `CCOc1cc(F)ccc1-c1sc2c(NN=Cc3ccc(OC)c(O)c3)ncnc2c1O` [Compound 61, 3-Hydroxy-4-methoxybenzaldehyde (6-(2-ethoxy-4-fluorophenyl)-7-hydroxythieno[3,2-d]pyrimidin-4-yl)hydrazone], the IC50 in assay [2] (setting [3]) turned out to be 6 nM.

As for `Cc1c(-c2ccc(CN)cc2)sc2c(NN=Cc3cccs3)ncnc12` [Compound 4, 2-Thiophenecarboxaldehyde (6-(4-aminomethyl)phenyl-7-methylthieno[3,2-d]pyrimidin-4-yl)hydrazone], in assay [2] (setting [3]), the IC50 was 28 nM.

Take `CCOc1ccccc1-c1sc2c(NN=Cc3ccc(OC)cc3OC)ncnc2c1C` [Compound 79, 2,4-Dimethoxybenzaldehyde (6-(2-ethoxyphenyl)-7-methylthieno[3,2-d]pyrimidin-4-yl)hydrazone]: the IC50 in assay [2] (setting [3]) worked out at 250 nM.

Regarding `CCOCc1c(-c2ccccc2OCC)sc2c(NN=Cc3ccc(OC)c(O)c3)ncnc12` [Compound 44], the IC50 in assay [2] (setting [3]) came to 79 nM.

With `CCOc1cc(F)ccc1-c1sc2c(NN=Cc3cc(OC)c(OCCN(CC)CC)c(OC)c3)ncnc2c1C` [Compound 160, 4-(2-Diethylamino-ethoxy)-3,5-dimethoxy-benzaldehyde (6-(2-ethoxy-4-fluorophenyl)-7-methylthieno[3,2-d]pyrimidin-4-yl)hydrazone], in assay [2] (setting [3]), the IC50 was determined as 0.3 nM.

As to `Cc1c(-c2ccc(C(N)=O)cc2)sc2c(NN=Cc3ccc(C(=O)O)cc3)ncnc12` [Compound 26, 4-Carboxybenzaldehyde (6-(4-aminocarbonylphenyl)-7-methylthieno[3,2-d]pyrimidin-4-yl)hydrazone], the IC50 in assay [2] (setting [3]) was found to be 36 nM.

As to `CCOc1ccccc1-c1sc2c(NN=Cc3c[nH]c(=O)[nH]c3=O)ncnc2c1O` [Compound 113, 2,4-Dioxo-1,2,3,4-tetrahydro-pyrimidine-5-carbaldehyde (6-(2-ethoxyphenyl)-7-hydroxythieno[3,2-d]pyrimidin-4-yl)hydrazone], in assay [2] (setting [3]), the IC50 was found to be 28 nM.

On to `COc1ccc(C=NNc2ncnc3c(C)c(CNc4ccccc4)sc23)cc1O` [Compound 18], for which the IC50 in assay [2] (setting [3]) was 550 nM.

Take `CCOc1ccccc1-c1sc2c(NN=Cc3ccncc3)ncnc2c1C#N` [compound 110]: the IC50 in assay [2] (setting [3]) stood at 1.9 nM.

Take `Cc1nc[nH]c1C=NNc1ncnc2c(C)c(CN3CCOCC3)sc12` [Compound 16, 4-Methyl-5-imidazolecarboxaldehyde (7-methyl-6-(morpholin-4-yl)methyllthieno[3,2-d]pyrimidin-4-yl)hydrazone]: the IC50 in assay [2] (setting [3]) was determined as 620 nM.

As for `Cc1c(-c2ccc(O)cc2)sc2c(NN=Cc3ccc(C(=O)O)cc3)ncnc12` [Compound 76, 4-Carboxybenzaldehyde (6-(4-hydroxyphenyl)-7-methylthieno[3,2-d]pyrimidin-4-yl]hydrazone], the IC50 in assay [2] (setting [3]) amounted to 41 nM.

For the molecule `CCOc1ccccc1-c1sc2c(NN=Cc3ccoc3)ncnc2c1O` [Compound 129, 3-Furancarboxaldehyde(6-(2-ethoxyphenyl)-7-hydroxythieno[3,2-d]pyrimidin-4-yl)hydrazone], the IC50 in assay [2] (setting [3]) turned out to be 3.4 nM.

For the molecule `CCOc1ccccc1-c1sc2c(NN=Cc3ccc(O)c(OC)c3)ncnc2c1C#N` [compound 86], in assay [2] (setting [3]), the IC50 stood at 1.4 nM.

On to `Cc1c(-c2ccc(C(N)=O)cc2)sc2c(NN=Cc3cccs3)ncnc12` [Compound 25, 2-Thiophenecarboxaldehyde (6-(4-aminocarbonylphenyl)-7-methylthieno[3,2-d]pyrimidin-4-yl)hydrazone], for which the IC50 in assay [2] (setting [3]) was 26 nM.

Regarding `Cc1c(-c2cccc(C#N)c2)sc2c(NN=Cc3cccnc3)ncnc12` [Compound 29, 3-Pyridinecarboxaldehyde (6-(3-cyanophenyl)-7-methylthieno[3,2-d]pyrimidin-4-yl)hydrazone], in assay [2] (setting [3]), the IC50 is 27 nM.

For `CCCOc1ccccc1-c1sc2c(NN=Cc3ccc(OC)c(O)c3)ncnc2c1C` [Compound 83, 3-Hydroxy-4-methoxybenzaldehyde (7-methyl-6-(2-propoxyphenyl)thieno[3,2-d]pyrimidin-4-yl)hydrazone], the IC50 in assay [2] (setting [3]) turned out to be 29 nM.
